According to patent publication US20240400531A1, “HERBICIDAL MALONAMIDES CONTAINING A CONDENSED RING SYSTEM” (BASF SE, priority 2021, published 2024):

Experiments:
APESV = assay: greenhouse pre-emergence herbicidal test; assay type: in vivo, Apera spica-venti; conditions: pre-emergence method, application rate 0.250 kg/ha, scale from 0 to 100
Description: (§1) The culture containers used were plastic flowerpots containing loamy sand with approximately 3.0% of humus as the substrate. The seeds of the test plants were sown separately for each species.
For the pre-emergence treatment, the active ingredients, which had been suspended or emulsified in water, were applied directly after sowing by means of finely distributing nozzles. The containers were irrigated gently to promote germination and growth and subsequently covered with transparent plastic hoods until the test plants had rooted. This cover caused uniform germination of the test plants, unless this had been impaired by the active ingredients.
(§2) Depending on the species, the test plants were kept at 10-25° C. or 20-35° C., respectively.
(§3) The test period extended over 2 to 4 weeks. During this time, the test plants were tended, and their response to the individual treatments was evaluated.
(§4) Evaluation was carried out using a scale from 0 to 100. 100 means no emergence of the test plants, or complete destruction of at least the aerial moieties, and 0 means no damage, or normal course of growth. A good herbicidal activity is given at values of 65 to <90 and a very good herbicidal activity is given at values of 90 to 100.

ECHCG = assay: greenhouse post-emergence herbicidal test; assay type: in vivo, Echinocloa crus-galli; conditions: post-emergence method, application rate 0.250 kg/ha, scale from 0 to 100
Description: as §1
(§5) For the post-emergence treatment, the test plants were first grown to a height of 3 to 15 cm, depending on the plant habit, and only then treated with the active ingredients which had been suspended or emulsified in water. For this purpose, the test plants were either sown directly and grown in the same containers, or they were first grown separately as seedlings and transplanted into the test containers a few days prior to treatment.
as §2, §3, §4

AMARE = assay: greenhouse post-emergence herbicidal test; assay type: in vivo, Amaranthus retroflexus; conditions: post-emergence method, application rate 0.250 kg/ha, scale from 0 to 100
Description: as §1, §5, §2, §3, §4

Row | SMILES | herbicidal activity against APESV (APESV) | herbicidal activity against ECHCG (ECHCG) | herbicidal activity against AMARE (AMARE)
1 | COC(C(=O)Nc1cccc2occc12)C(=O)N[C@H]1C=C[C@@H](C(=O)OC(C)C)C1 (stereo partly drawn) [I.6, isopropyl (1S,4R)-4-[[3-(benzofuran-4-ylamino)-2-methoxy-3-oxo-propanoyl]amino]cyclopent-2-ene-1-carboxylate] | very good (a very good herbicidal activity is given at values of 90 to 100) | very good (a very good herbicidal activity is given at values of 90 to 100) | 
2 | COC(C(=O)Nc1cccc2ocnc12)C(=O)N[C@H]1C=C[C@@H](C(=O)OC(C)C)C1 (stereo partly drawn) [I.11, isopropyl (1S,4R)-4-[[3-(1,3-benzoxazol-4-ylamino)-2-methoxy-3-oxo-propanoyl]amino]cyclopent-2-ene-1-carboxylate] |  |  | very good (a very good herbicidal activity is given at values of 90 to 100)
